Among the data in US8921376B2, “Pyrrolopyridines useful as inhibitors of protein kinase” (Vertex Pharmaceuticals Incorporated, priority 2005, dated 2014) are Ki values, retold here.

Assay type in all cases: biochemical
In test [1] the target is T1, JAK3 (Homo sapiens, UniProt P52333).
T1 sequence (P52333 1-1124): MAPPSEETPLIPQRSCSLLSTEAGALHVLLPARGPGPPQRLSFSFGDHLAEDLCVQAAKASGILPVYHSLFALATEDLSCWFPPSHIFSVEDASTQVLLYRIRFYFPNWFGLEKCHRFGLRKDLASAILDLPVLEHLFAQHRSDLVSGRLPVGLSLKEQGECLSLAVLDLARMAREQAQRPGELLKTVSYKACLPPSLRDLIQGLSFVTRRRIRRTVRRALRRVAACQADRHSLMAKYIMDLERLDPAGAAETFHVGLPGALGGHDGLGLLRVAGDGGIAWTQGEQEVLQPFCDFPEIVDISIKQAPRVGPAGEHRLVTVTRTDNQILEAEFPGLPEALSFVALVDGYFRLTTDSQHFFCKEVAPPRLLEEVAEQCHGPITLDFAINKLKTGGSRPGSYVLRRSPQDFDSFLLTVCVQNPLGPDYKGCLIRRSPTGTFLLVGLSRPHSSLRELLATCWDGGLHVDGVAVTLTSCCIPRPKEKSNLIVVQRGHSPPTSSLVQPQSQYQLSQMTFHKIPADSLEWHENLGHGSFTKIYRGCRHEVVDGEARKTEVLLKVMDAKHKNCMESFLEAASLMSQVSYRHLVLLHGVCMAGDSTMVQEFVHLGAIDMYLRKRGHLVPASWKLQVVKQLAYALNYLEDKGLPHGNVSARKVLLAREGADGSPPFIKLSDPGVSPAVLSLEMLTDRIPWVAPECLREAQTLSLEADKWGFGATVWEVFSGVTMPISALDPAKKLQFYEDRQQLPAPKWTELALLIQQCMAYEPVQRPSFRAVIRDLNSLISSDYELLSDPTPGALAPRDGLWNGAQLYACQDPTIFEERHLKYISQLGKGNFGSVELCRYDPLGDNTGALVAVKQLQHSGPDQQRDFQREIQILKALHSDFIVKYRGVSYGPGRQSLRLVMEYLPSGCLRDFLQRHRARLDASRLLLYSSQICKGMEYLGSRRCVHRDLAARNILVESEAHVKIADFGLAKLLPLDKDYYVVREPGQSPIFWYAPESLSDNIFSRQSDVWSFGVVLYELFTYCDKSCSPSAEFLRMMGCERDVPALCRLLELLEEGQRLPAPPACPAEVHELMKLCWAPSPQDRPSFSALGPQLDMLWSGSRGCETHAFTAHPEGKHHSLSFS
In words: JAK3 inhibition assay (33P incorporation into poly(Glu)4Tyr). In outline:
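After TCA quench and filter harvest, scintillation counting of 33P measured phosphorylation of poly(Glu)4Tyr (1 μM) by 1 nM JAK3. The 20-min, 25° C. reaction contained 5 μM ATP (200 μCi/μmole) in pH 7.4 HEPES buffer with 10 mM MgCl2.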

Test [2] concerns the target ROCK I (Homo sapiens, UniProt Q13464). Description: ROCK-I inhibition assay (radioactive enzyme assay, MBP substrate). An outline of the steps:
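Human ROCK at 5 nM phosphorylated 27 μM myelin basic protein with 13 μM [γ-33P]ATP (final) in HEPES pH 7.5, MgCl2, NaCl, DTT and 1.5% DMSO. Reactions ran 2 h at room temperature before TCA quench and filter-plate scintillation counting. After background subtraction, data were fit to give Ki(app).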

The target in test [3] is JAK2 (Homo sapiens, UniProt O60674). In words: JAK2 inhibition assay (as Example 3 with JAK-2 enzyme). In outline:
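In HEPES pH 7.4 buffer with 10 mM MgCl2, 1 mM DTT, 25 mM NaCl and 0.01% BSA, JAK2 enzyme phosphorylated poly(Glu)4Tyr (final 15 μM) using 33P-ATP (final 12 μM) for 20 min at room temperature (25 °C). Reactions stopped with TCA; incorporated 33P measured by scintillation after filtration.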

Where [4] appears, read: Table 6, enzyme inhibition data (Ki).
[5] abbreviates: enzyme inhibition, Ki(app), Table 5.

Chain of JAK2 (O60674 whole entry): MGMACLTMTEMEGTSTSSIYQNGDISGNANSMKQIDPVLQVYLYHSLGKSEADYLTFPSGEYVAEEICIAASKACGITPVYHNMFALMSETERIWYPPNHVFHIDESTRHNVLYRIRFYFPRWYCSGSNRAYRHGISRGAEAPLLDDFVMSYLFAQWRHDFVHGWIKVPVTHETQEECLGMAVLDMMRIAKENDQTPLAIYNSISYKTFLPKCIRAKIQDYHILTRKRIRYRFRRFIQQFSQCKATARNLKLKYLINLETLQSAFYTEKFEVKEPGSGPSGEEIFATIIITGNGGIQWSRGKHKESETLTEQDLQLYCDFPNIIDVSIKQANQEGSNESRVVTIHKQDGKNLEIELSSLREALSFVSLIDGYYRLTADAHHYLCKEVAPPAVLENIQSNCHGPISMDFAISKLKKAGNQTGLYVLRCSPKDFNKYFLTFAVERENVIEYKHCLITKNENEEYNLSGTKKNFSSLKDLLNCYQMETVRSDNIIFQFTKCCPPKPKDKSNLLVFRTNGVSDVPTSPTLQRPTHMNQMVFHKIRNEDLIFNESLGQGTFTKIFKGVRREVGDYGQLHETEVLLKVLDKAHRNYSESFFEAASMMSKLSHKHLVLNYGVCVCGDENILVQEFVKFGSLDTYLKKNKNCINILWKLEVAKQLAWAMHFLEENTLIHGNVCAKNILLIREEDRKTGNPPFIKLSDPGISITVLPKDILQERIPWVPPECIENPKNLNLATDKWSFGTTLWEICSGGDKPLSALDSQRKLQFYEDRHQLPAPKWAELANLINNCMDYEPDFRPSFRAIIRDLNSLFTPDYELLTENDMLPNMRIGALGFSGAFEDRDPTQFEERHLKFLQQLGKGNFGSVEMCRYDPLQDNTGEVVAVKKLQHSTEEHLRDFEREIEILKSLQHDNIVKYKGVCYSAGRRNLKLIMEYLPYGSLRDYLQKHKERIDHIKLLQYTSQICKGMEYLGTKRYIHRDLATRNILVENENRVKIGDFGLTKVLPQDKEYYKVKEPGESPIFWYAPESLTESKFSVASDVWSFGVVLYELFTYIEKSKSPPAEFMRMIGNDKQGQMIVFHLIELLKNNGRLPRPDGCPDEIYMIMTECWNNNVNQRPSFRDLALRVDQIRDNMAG
Chain of ROCK I (Q13464 whole entry): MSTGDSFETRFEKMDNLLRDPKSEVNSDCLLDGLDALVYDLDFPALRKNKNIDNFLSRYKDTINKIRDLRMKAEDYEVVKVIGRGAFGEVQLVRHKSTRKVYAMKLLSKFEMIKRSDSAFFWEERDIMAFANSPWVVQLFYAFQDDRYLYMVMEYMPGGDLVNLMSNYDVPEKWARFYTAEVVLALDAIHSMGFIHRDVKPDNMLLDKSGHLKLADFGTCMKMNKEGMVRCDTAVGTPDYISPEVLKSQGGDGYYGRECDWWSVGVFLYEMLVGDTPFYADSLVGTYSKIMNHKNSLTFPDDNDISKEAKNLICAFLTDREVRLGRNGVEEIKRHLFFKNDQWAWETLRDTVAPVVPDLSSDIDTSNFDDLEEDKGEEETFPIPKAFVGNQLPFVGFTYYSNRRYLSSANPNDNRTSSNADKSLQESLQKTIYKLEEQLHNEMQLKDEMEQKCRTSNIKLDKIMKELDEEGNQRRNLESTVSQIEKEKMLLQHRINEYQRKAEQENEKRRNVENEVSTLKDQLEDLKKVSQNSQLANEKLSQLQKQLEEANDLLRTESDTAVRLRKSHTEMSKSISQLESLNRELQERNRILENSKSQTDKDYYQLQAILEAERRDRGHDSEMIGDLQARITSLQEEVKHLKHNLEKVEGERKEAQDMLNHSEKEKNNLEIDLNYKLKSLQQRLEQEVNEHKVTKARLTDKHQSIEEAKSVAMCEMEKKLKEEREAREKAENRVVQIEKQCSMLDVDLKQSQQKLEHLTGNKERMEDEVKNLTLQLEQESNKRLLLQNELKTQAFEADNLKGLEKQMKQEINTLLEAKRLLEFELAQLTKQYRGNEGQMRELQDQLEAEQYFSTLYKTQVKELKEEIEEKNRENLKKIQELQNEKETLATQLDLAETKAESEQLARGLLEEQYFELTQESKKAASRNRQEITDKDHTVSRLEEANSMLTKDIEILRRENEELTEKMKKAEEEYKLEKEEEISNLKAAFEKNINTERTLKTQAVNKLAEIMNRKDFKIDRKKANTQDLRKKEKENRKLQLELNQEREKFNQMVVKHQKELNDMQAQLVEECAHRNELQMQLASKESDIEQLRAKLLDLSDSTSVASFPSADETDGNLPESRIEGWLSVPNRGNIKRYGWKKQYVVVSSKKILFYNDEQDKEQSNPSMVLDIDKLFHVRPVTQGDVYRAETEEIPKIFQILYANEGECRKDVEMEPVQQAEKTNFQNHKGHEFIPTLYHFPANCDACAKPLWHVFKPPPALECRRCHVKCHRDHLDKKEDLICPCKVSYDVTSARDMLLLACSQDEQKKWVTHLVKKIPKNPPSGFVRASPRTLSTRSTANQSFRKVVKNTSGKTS

Turning to `CC(C)[C@H](C(=O)NCC(F)(F)F)n1ccc2cnc(-c3ccnc4[nH]ccc34)nc21` [compound 425], the Ki in test [1] (setting [4]) was below 500 nM; in test [2] (setting [4]), above 4000 nM; in test [3] (setting [4]), below 500 nM.
Regarding `CC[C@H](C)NC(=O)c1cc(-c2ccnc3[nH]ccc23)c[nH]1` [compound 290], the figures for the Ki in test [1] (setting [4]), in test [2] (setting [4]) and in test [3] (setting [4]) were 500 to 5000 nM, below 500 nM and below 500 nM, respectively.
As to `Cc1ccc(C)c(-c2ccnc3[nH]ccc23)c1` [compound 209], the values for the Ki in test [1] (setting [4]), in test [2] (setting [4]) and in test [3] (setting [4]) were above 5000 nM, below 500 nM and above 5000 nM, respectively.
Regarding `CCCN(CC(F)(F)F)C(=O)c1cc(-c2c(F)cnc3[nH]ccc23)c[nH]1` [compound 388], the Ki in test [1] (setting [4]), in test [2] (setting [4]) and in test [3] (setting [4]) was below 500 nM in each case.
For the compound `CC(C)CN(CC(C)C)C(=O)c1ccc(-c2ccnc3[nH]ccc23)s1` [compound 327], the Ki in test [1] (setting [4]) was 500 to 5000 nM; in test [2] (setting [4]), below 500 nM; in test [3] (setting [4]), below 500 nM.
For the compound `Clc1cnc2[nH]ccc2c1NC1CCCCC1` [compound 126, 5-chloro-N-cyclohexyl-1H-pyrrolo[2,3-b]pyridin-4-amine], the Ki in test [1] (enzyme inhibition, Table 5) was below 500 nM; in test [2] (setting [5]), below 500 nM; in test [3] (enzyme inhibition, Table 5), below 500 nM.
With `O=C(NCC1CC1)c1csc(-c2ccnc3[nH]ccc23)n1` [compound 412], the Ki in test [1] (setting [4]) is below 500 nM; in test [2] (setting [4]) it was 500 to 5000 nM; in test [3] (setting [4]), below 500 nM.
For the compound `CCCOC(=O)N1CCCC(Nc2c(Cl)cnc3[nH]ccc23)C1` (stereo not drawn) [compound 174], the Ki was below 500 nM in test [1] (setting [4]), 500 to 5000 nM in test [2] (setting [4]) and below 500 nM in test [3] (setting [4]).
Take `CCN(Cc1ccccc1)C(=O)c1cc(-c2c(F)cnc3[nH]ccc23)c[nH]1` [compound 395]: the Ki in test [1] (setting [4]) was below 500 nM; in test [2] (setting [4]) it was 500 to 5000 nM; in test [3] (setting [4]) it was below 500 nM.
As for `CCNC(=O)c1cc(-c2c(Cl)cnc3[nH]ccc23)c[nH]1` [compound 278], the Ki in test [1] (setting [4]) is below 500 nM; in test [2] (setting [4]), above 4000 nM; in test [3] (setting [4]) it was below 500 nM.
With `CNC(=O)c1cccc(-c2ccnc3[nH]ccc23)c1` [compound 91, N-Methyl-3-(1H-pyrrolo[2,3-b]pyridin-4-yl)-benzamide], the Ki fell in the range of 500 to 5000 nM in test [1] (enzyme inhibition, Table 5); 500 to 5000 nM in test [2] (setting [5]); 500 to 5000 nM in test [3] (enzyme inhibition, Table 5).
For `N#Cc1ccccc1-c1ccnc2[nH]ccc12` [compound 214], the results for the Ki in test [1] (setting [4]), in test [2] (setting [4]) and in test [3] (setting [4]) were 500 to 5000 nM, 500 to 5000 nM and above 5000 nM, respectively.
`N#CCCN(CC1CC1)C(=O)c1cc(-c2c(F)cnc3[nH]ccc23)c[nH]1` [compound 398]: the Ki in test [1] (setting [4]), in test [2] (setting [4]) and in test [3] (setting [4]) was below 500 nM throughout.
Turning to `CCCN(CCC#N)C(=O)c1cc(-c2c(Cl)cnc3[nH]ccc23)c[nH]1` [compound 335], the Ki in test [1] (setting [4]) is below 500 nM; in test [2] (setting [4]), 500 to 5000 nM; in test [3] (setting [4]), below 500 nM.
Regarding `N#CCC(=O)N1CCCC(Nc2c(Cl)cnc3[nH]ccc23)C1` (stereo not drawn) [compound 188], the Ki was below 500 nM in test [1] (setting [4]), 500 to 5000 nM in test [2] (setting [4]) and below 500 nM in test [3] (setting [4]).
On to `CC(C)C[C@@H](CO)Nc1cccc(-c2ccnc3[nH]ccc23)n1` [compound 59, (S)-2-(6-(1H-Pyrrolo[2,3-b]pyridin-4-yl)pyridin-2-ylamino)-4-methylpentan-1-ol], for which the Ki in test [1] (enzyme inhibition, Table 5) is above 5000 nM; in test [2] (setting [5]), 500 to 5000 nM; in test [3] (enzyme inhibition, Table 5), above 5000 nM.
For the compound `O=C(c1cc(-c2ccnc3[nH]ccc23)c[nH]1)N1CCC(O)C1` (stereo not drawn) [compound 377], the Ki is 500 to 5000 nM in test [1] (setting [4]), below 500 nM in test [2] (setting [4]) and 500 to 5000 nM in test [3] (setting [4]).
On to `CCN(CCO)C(=O)c1cc(-c2ccnc3[nH]ccc23)c[nH]1` [compound 361], for which the Ki in test [1] (setting [4]), in test [2] (setting [4]) and in test [3] (setting [4]) was below 500 nM throughout.
In the case of `CCN(CC)c1cccc(-c2ccnc3[nH]ccc23)n1` [compound 52, N,N-Diethyl-6-(1H-pyrrolo[2,3-b]pyridin-4-yl)pyridin-2-amine], the Ki in test [1] (enzyme inhibition, Table 5) is below 500 nM; in test [2] (setting [5]), below 500 nM; in test [3] (enzyme inhibition, Table 5) it was below 500 nM.
Turning to `Fc1cnc2[nH]ccc2c1-c1ccc(CN(CCC(F)(F)F)CC2CC2)o1` [compound 382], the Ki is below 500 nM in test [1] (setting [4]), 500 to 5000 nM in test [2] (setting [4]) and below 500 nM in test [3] (setting [4]).
In the case of `CCCN(CC1CC1)C(=O)c1cc(-c2c(F)cnc3[nH]ccc23)c[nH]1` [compound 392], the Ki is below 500 nM in test [1] (setting [4]), 500 to 5000 nM in test [2] (setting [4]) and below 500 nM in test [3] (setting [4]).
On to `Clc1ccc(-c2c(Cl)cnc3[nH]ccc23)s1` [compound 141], for which the Ki in test [1] (setting [4]) is below 500 nM; in test [2] (setting [4]), above 4000 nM; in test [3] (setting [4]), below 500 nM.
Turning to `Cn1cc(-c2c(Cl)cnc3[nH]ccc23)cn1` [compound 70, 5-Chloro-4-(1-methyl-1H-pyrazol-4-yl)-1H-pyrrolo[2,3b]pyridine], the Ki in test [1] (enzyme inhibition, Table 5) is below 500 nM; in test [2] (setting [5]) it was 500 to 5000 nM; in test [3] (enzyme inhibition, Table 5), below 500 nM.
For `CC(=O)Nc1ccccc1-c1ccnc2[nH]ccc12` [compound 118], the Ki in test [1] (enzyme inhibition, Table 5) is above 5000 nM; in test [2] (setting [5]), 500 to 5000 nM; in test [3] (enzyme inhibition, Table 5), above 5000 nM.
For the compound `COc1cc(-c2ccnc3[nH]ccc23)cc(OC)c1OC` [compound 40, 4-(3,4,5-Trimethoxy-phenyl)-1H-pyrrolo[2,3-b]pyridine], the Ki in test [1] (enzyme inhibition, Table 5) lay within 500 to 5000 nM; in test [2] (setting [5]), 500 to 5000 nM; in test [3] (enzyme inhibition, Table 5) it was 500 to 5000 nM.
On to `O=C(c1cc(-c2c(Cl)cnc3[nH]ccc23)c[nH]1)N1CCCC1CO` (stereo not drawn) [compound 346], for which the Ki is below 500 nM in test [1] (setting [4]), above 4000 nM in test [2] (setting [4]) and below 500 nM in test [3] (setting [4]).
In the case of `CC(C)CN(CC(C)C)C(=O)c1cc(-c2ccnc3[nH]ccc23)c[nH]1` [compound 311], the Ki in test [1] (setting [4]), in test [2] (setting [4]) and in test [3] (setting [4]) was below 500 nM throughout.
In the case of `CCCN(CC1CC1)C(=O)c1cc(-c2ccnc3[nH]ccc23)c[nH]1` [compound 301], the Ki in test [1] (setting [4]), in test [2] (setting [4]) and in test [3] (setting [4]) was below 500 nM each time.
Consider `CCN(Cc1ccccc1)C(=O)c1ccc(-c2ccnc3[nH]ccc23)s1` [compound 304], for which the Ki in test [1] (setting [4]), in test [2] (setting [4]) and in test [3] (setting [4]) was below 500 nM throughout.
`Cc1cc(C)cc(-c2ccnc3[nH]ccc23)c1` [compound 112, 4-(3,5-Dimethyl-phenyl)-1H-pyrrolo[2,3-b]pyridine]: the Ki was 500 to 5000 nM in test [1] (enzyme inhibition, Table 5); below 500 nM in test [2] (setting [5]); below 500 nM in test [3] (enzyme inhibition, Table 5).
For `O=C(NCC(F)(F)F)c1cccc(-c2ccnc3[nH]ccc23)c1` [compound 251], the Ki in test [1] (setting [4]) was below 500 nM; in test [2] (setting [4]), below 500 nM; in test [3] (setting [4]) it was 500 to 5000 nM.
As for `O=C(NC1CCCC1)c1cc(-c2ccnc3[nH]ccc23)c[nH]1` [compound 263], the Ki in test [1] (setting [4]), in test [2] (setting [4]) and in test [3] (setting [4]) was below 500 nM in each case.
For the compound `CC(=O)Nc1cccc(-c2ccnc3[nH]ccc23)c1` [compound 107, N-[3-(1H-Pyrrolo[2,3-b]pyridin-4-yl)-phenyl]-acetamide], the Ki in test [1] (enzyme inhibition, Table 5) lay within 500 to 5000 nM; in test [2] (setting [5]) it was 500 to 5000 nM; in test [3] (enzyme inhibition, Table 5) it was 500 to 5000 nM.
With `CC(C)CCNC(=O)c1csc(-c2ccnc3[nH]ccc23)n1` [compound 413], the values for the Ki in test [1] (setting [4]), in test [2] (setting [4]) and in test [3] (setting [4]) were 500 to 5000 nM, 500 to 5000 nM and below 500 nM, respectively.
Turning to `CN(CC(F)(F)F)C(=O)c1cc(-c2ccnc3[nH]ccc23)c[nH]1` [compound 376], the Ki in test [1] (setting [4]), in test [2] (setting [4]) and in test [3] (setting [4]) was below 500 nM in each case.
